From patent US11524004B2, “Analogs of proxisome proliferator activated receptor (PPAR) agonists and methods of using the same” (The University of Toledo, priority 2013, dated 2022)

Legend:
[1] = tested on: Human bone marrow-derived mesenchymal stem cells (MSCs); test: MSC osteogenesis assay: Alizarin Red S osteoblast mineralization, with concomitant assessment of fat cell formation; type: cell-based; conditions: for profile of fat (AD) versus osteogenic (OS) effects during dose progression (bone should predominate): dose progression 1-20 μM; for osteogenic formation from MSCs: MSCs in osteogenic medium, test agent at 1, 2, 4, 10 or 20 μM every 2nd day for 21 days, Alizarin Red S
Method: Human bone marrow-derived mesenchymal stem cells (MSCs) were taken through 2-3 passages and distributed across a 24 well plate at a density of 1×10^5 cells/cm^2. The plates were cultured in α-MEM with 20% FBS for 1 day at 37° C. On day 2 the medium was switched to osteogenic media (Stem X-Vivo, R&D System, Minneapolis, Minn.) containing 10% FBS plus 50 μg/ml ascorbic acid and 3 mM β-glycerol-phosphate. MSCs were cultured in the osteogenic medium without (vehicle negative control) or with test agents at 1, 2, 4, 10 or 20 μM supplied every 2nd day for 21 days. GW 0427 (standard PPAR ligand as positive control) was delivered by the same regimen on every plate to account for experimental variation.
Plates were washed twice with ice-cold PBS and incubated in 50 mM Tris-HCl (pH 7.6). The cells were treated with 2% Alizarin Red S (pH 4.2) for 10 min and then washed with distilled water. Stained cells were visualized by phase-contrast microscopy to determine cell morphology and to verify the presence of mineralized nodules (red images). The intensities of the images were assessed by Image-Pro Analyzer (Media Cybernetics, Inc., Bethesda, Md.).

| Compound | profile of fat (AD) versus osteogenic (OS) effects during dose progression (bone should predominate) ([1]; MSC assay) | osteogenic formation from MSCs [1] | further results |
| --- | --- | --- | --- |
| Cc1nc(-c2ccccc2)sc1CCOc1ccc(C=CC(=O)O)cc1 [BK-3-51, 4-[[4-Methyl-2-phenylthiazol-5-yl]methyl]methoxycinnamic Acid] |  |  | melting point: 209 to 211 °C |
| Cc1nc(-c2ccc(C(F)(F)F)cc2)sc1CN(C)c1ccc(C=CC(=O)O)cc1 [BK-4-15, 4-[N-Methyl-N-[5-methylene-4-methyl-2-[4-(trifluoromethyl)phenyl]thiazole]]aminocinnamic Acid] | most preferred profile | Increased osteogenic formation |  |
| Cc1nc(-c2ccc(C(F)(F)F)cc2)sc1CSc1ccc(C=CC(=O)O)cc1 [BK-4-04, 4-Thio-[5-methylene-4-methyl-2-[4-(trifluoromethyl)phenyl]thiazole]cinnamic Acid] |  | Increased osteogenic formation |  |
| Cc1nc(-c2ccc(C(F)(F)F)c(F)c2)sc1CNc1ccc(C=CC(=O)O)cc1 [BK-4-30, 4-[N-[5-methylene-4-methyl-2-[3-fluoro-4-(trifluoromethyl)phenyl]thiazole]]aminocinnamic Acid] | not as suitable |  |  |
| Cc1nc(-c2ccc(C(F)(F)F)cc2)sc1CNc1ccc(C=CC(=O)O)cc1 [BK-4-03, 4-[N-[5-Methylene-4-methyl-2-[4-(trifluoromethyl)phenyl]thiazole]]aminocinnamic Acid] |  | Increased osteogenic formation |  |
| Cc1nc(-c2ccc(C(F)(F)F)c(F)c2)sc1COc1ccc(C=CC(=O)O)cc1 [JM-4-57, 4-[Oxo-[5-methylene-4-methyl-2-[3-fluoro-4-(trifluromethyl)phenyl]thiazole]]cinnamic Acid] |  | Increased osteogenic formation | concentration at which osteogenic activity peaks ([1]; MSCs, 21 days, doses 1-20 μM): 10 µM |
| Cc1cc(SCc2sc(-c3ccc(C(F)(F)F)c(F)c3)nc2C)ccc1OCC(=O)O [GW0742, reference compound] | initially demonstrates such a preference |  | OS activity as dose range continued to 10 and 20 uM ([1]; MSC assay, 10 and 20 uM, estimated, averaged effects): decreased |
